{"source": "patent US20170100433A1", "about": "“MODIFIED NATURAL KILLER CELLS HAVING ANTI-FUGETACTIC PROPERTIES AND USES THEREOF” (THE GENERAL HOSPITAL CORPORATION DBA MASSACHUSETTS GENERAL …, priority 2015, published 2017)", "key": {"human CD3+ T cells [1]": {"test_system": "human CD3+ T cells", "settings": "CI of 1.0 is the control, triplicate wells", "experimental": "Freshly prepared and purified human CD3^+ T cells were prepared from healthy donor peripheral blood. 20,000 T cells were loaded into the upper chamber of the Transwell in control, chemotactic or fugetactic settings with AMD3100 at concentrations between 0.1 μM and 10 μM. Migrated cells were counted in the lower chamber and migration quantitated as previously described. Vianello et al. The Journal of Immunology, 2006, 176: 2902-2914; Righi et al., Cancer Res.; 71(16); 5522-34, each of which is incorporated herein in its entirety.\nAll wells were run in triplicate."}, "human CD3+ T cells [2]": {"test_system": "human CD3+ T cells", "settings": "T cells incubated with 0.01 μM to 10 mM AMD3100; anti-fugetactic at lower, fugetactic at higher concentrations; cells harvested after 3 h", "experimental": "For quantitative transmigration assays, purified human CD3^+ T cells (approximately 2×10^4 cells) are added to the upper chamber of a Transwell® insert in each well, to a total volume of 150 μl of Iscove's modified medium. […] To determine the anti-fugetactic concentration of AMD3100, the T cells are incubated with 0.01 μM to 10 mM AMD3100 prior to addition to the chamber. Cells are harvested from the lower chamber after 3 h, and cell counts are performed using a hemocytometer."}}, "data": [{"smiles": "c1cc(CN2CCCNCCNCCCNCC2)ccc1CN1CCCNCCNCCCNCC1", "note": "[AMD3100, 1,1′-[1,4-phenylenebis(methylene)]bis [1,4,8,11-tetraazacyclotetradecane]]", "values": [{"measurement": "CI (chemotactic index), chemotactic response", "setting": "human CD3+ T cells [1]; chemotactic setting, AMD3100 at 1 μM, FIG. 1", "result": 2.3}, {"measurement": "CI (chemotactic index), fugetactic response", "setting": "human CD3+ T cells [1]; fugetactic setting, AMD3100 at 0.1 μM, FIG. 2", "result": 1.6}, {"measurement": "Effect of AMD3100 pre-incubation on T cell migration", "setting": "human CD3+ T cells [2]", "result": "bimodal effect"}]}]}
